Measurements: patent US20150231093A1, “METHODS AND COMPOSITIONS FOR COUNTERMEASURES AGAINST RADIATION” (THE UNIVERSITY OF CHICAGO, priority 2014, published 2015)

Assays:
[1] = Tolerability of the i.p. doses used in mice
Experimental: For in vivo studies, mice were injected i.p. with a final volume of 0.2 ml for all single and drug combinations used. […] Captopril was injected at a final concentration of 200 mg/kg body weight, MESNA was injected at a final concentration of 300 mg/kg body weight, and NAC was injected at a concentration of 400 mg/kg body weight.

[2] = test system: mouse splenocytes; conditions: i.p. 24 h following 7 Gy; amifostine 400 mg/kg, metformin 250 mg/kg
[3] = 250 mg/kg i.p. 24 h following 7 Gy, counted 13 days after irradiation
[4] = test system: human microvascular endothelial cells (HMEC); experiment: In vitro cell survival (colony) assay after 4 Gy, HMEC; type: cell-based; conditions: 4 mM, 30 min prior to 4 Gy
Text: (§1) In Vitro Cell Survival Assay. […] Unirradiated cells served as controls. Immediately following irradiation, cells were counted, diluted, and known numbers seeded into 100-mm tissue culture dishes to allow the development of 50 to 150 colonies per dish. Colonies were stained with 20% crystal violet and scored 12 days after plating.

[5] = test system: SA-NH murine sarcoma cells; experiment: In vitro cell survival (colony) assay after 4 Gy, SA-NH cells; type: cell-based; conditions: 4 mM, 30 min prior to 4 Gy
Text: as §1

[6] = test system: mouse embryo fibroblasts (MEF); experiment: In vitro cell survival (colony) assay after 4 Gy, MEF; type: cell-based; conditions: 4 mM, 30 min prior to 4 Gy
Text: as §1

## C[C@H](CS)C(=O)N1CCC[C@H]1C(=O)O [Captopril, captopril]
[1]; 200 mg/kg body weight
  toxicity of dose used: non-toxic

## O=S(=O)([O-])CCS.[Na+] [MESNA, sodium 2-sulfanylethanesulfonate]
[1]; 300 mg/kg body weight
  toxicity of dose used: non-toxic

## CN(C)C(=N)NC(=N)N.Cl [Metformin, 1,1-Dimethylbiguanide hydrochloride]
[2]
  protection of irradiated animals (in words): significantly protected
[3]
  average number of spleen nodules: 18

## CC(=O)N[C@@H](CS)C(=O)O [NAC, N-acetyl-cysteine]
[1]; 400 mg/kg body weight
  toxicity of dose used: non-toxic

## NCCCNCCS [WR1065, 2-[(aminopropyl)amino] ethanethiol]
[4]
  protection ratio: 1.8
[5]
  protection ratio: 1.6
[6]
  protection ratio: 1.9
